Laboratory results: ChEMBL document CHEMBL4613209, “Quinolone hybrids and their anti-cancer activities: An overview” (Eur J Med Chem, 2019)

Each molecule was assayed on Hep 3B2 (assay: Antiproliferative activity against human Hep3B cells after 24 to 72 hrs by MTT assay).
Type: functional, cell-based

Compound	IC50 [µM]
CCn1cc(-c2nnc(SCC(=O)N/N=C/c3cccc([N+](=O)[O-])c3)o2)c(=O)c2cc(F)c(N3CCN(C)CC3)cc21	1.4 to 52.3
CCn1cc(-c2nnc(SCC(=O)N/N=C/c3ccccc3)o2)c(=O)c2cc(F)c(N3CCN(C)CC3)cc21	1.4 to 52.3
CCn1cc(-c2nnc(SCC(=O)N/N=C/c3ccc(O)c(OC)c3)o2)c(=O)c2cc(F)c(N3CCN(C)CC3)cc21	1.4 to 52.3
CCn1cc(-c2nnc(SCC(=O)N/N=C/c3ccc([N+](=O)[O-])cc3)o2)c(=O)c2cc(F)c(N3CCN(C)CC3)cc21	1.4 to 52.3
CCn1cc(-c2nnc(SCC(=O)N/N=C/c3ccc(C)cc3)o2)c(=O)c2cc(F)c(N3CCN(C)CC3)cc21	1.4 to 52.3

These molecules were tested on SMMC-7721 (assay: Antiproliferative activity against human SMMC7721 cells after 24 to 72 hrs by MTT assay).
Type: functional, cell-based

Compound	IC50 [µM]
CCn1cc(-c2nnc(SCC(=O)N/N=C/c3cccc([N+](=O)[O-])c3)o2)c(=O)c2cc(F)c(N3CCN(C)CC3)cc21	1.4 to 52.3
CCn1cc(-c2nnc(SCC(=O)N/N=C/c3ccccc3)o2)c(=O)c2cc(F)c(N3CCN(C)CC3)cc21	1.4 to 52.3
CCn1cc(-c2nnc(SCC(=O)N/N=C/c3ccc(O)c(OC)c3)o2)c(=O)c2cc(F)c(N3CCN(C)CC3)cc21	1.4 to 52.3
CCn1cc(-c2nnc(SCC(=O)N/N=C/c3ccc([N+](=O)[O-])cc3)o2)c(=O)c2cc(F)c(N3CCN(C)CC3)cc21	1.4 to 52.3
CCn1cc(-c2nnc(SCC(=O)N/N=C/c3ccc(C)cc3)o2)c(=O)c2cc(F)c(N3CCN(C)CC3)cc21	1.4 to 52.3

Each molecule was assayed on CAPAN-1 (assay: Cytotoxicity against human Capan1 cells assessed as reduction in cell viability by MTT assay).
Type: functional, cell-based

Compound	IC50 [µM]
CCn1cc(-c2nc(SCc3nnc(-c4ccccc4)o3)n(CN(C)C)n2)c(=O)c2cc(F)c(N3CCN(C)CC3)cc21	1.5 to 24.5
CCn1cc(-c2nnc(SCc3nnc(-c4ccc(F)cc4)o3)[nH]2)c(=O)c2cc(F)c(N3CCN(C)CC3)cc21	3.8 to 35.2
CCn1cc(-c2nnc(SCc3nnc(-c4ccccc4OC)o3)[nH]2)c(=O)c2cc(F)c(N3CCN(C)CC3)cc21	3.8 to 35.2
CCn1cc(-c2nc(SCc3nnc(-c4ccccc4OC)o3)n(CN(C)C)n2)c(=O)c2cc(F)c(N3CCN(C)CC3)cc21	1.5 to 24.5
CCn1cc(-c2nc(SCc3nnc(-c4cccc(C)c4)o3)n(CN(C)C)n2)c(=O)c2cc(F)c(N3CCN(C)CC3)cc21	1.5 to 24.5
CCn1cc(-c2nnc(SCc3nnc(-c4ccccc4)o3)[nH]2)c(=O)c2cc(F)c(N3CCN(C)CC3)cc21	3.8 to 35.2

The molecules below were run on Hep 3B2 (assay: Cytotoxicity against human Hep3B cells assessed as reduction in cell viability by MTT assay).
Type: functional, cell-based

Compound	IC50 [µM]
CCn1cc(-c2nc(SCc3nnc(-c4ccccc4)o3)n(CN(C)C)n2)c(=O)c2cc(F)c(N3CCN(C)CC3)cc21	1.5 to 24.5
CCn1cc(-c2nnc(SCc3nnc(-c4ccc(F)cc4)o3)[nH]2)c(=O)c2cc(F)c(N3CCN(C)CC3)cc21	3.8 to 35.2
CCn1cc(-c2nnc(SCc3nnc(-c4ccccc4OC)o3)[nH]2)c(=O)c2cc(F)c(N3CCN(C)CC3)cc21	3.8 to 35.2
CCn1cc(-c2nc(SCc3nnc(-c4ccccc4OC)o3)n(CN(C)C)n2)c(=O)c2cc(F)c(N3CCN(C)CC3)cc21	1.5 to 24.5
CCn1cc(-c2nc(SCc3nnc(-c4cccc(C)c4)o3)n(CN(C)C)n2)c(=O)c2cc(F)c(N3CCN(C)CC3)cc21	1.5 to 24.5
CCn1cc(-c2nnc(SCc3nnc(-c4ccccc4)o3)[nH]2)c(=O)c2cc(F)c(N3CCN(C)CC3)cc21	3.8 to 35.2

What follows are molecules tested on HL-60 (assay: Cytotoxicity against human HL60 cells assessed as reduction in cell viability by MTT assay).
Type: functional, cell-based

Compound	IC50 [µM]
CCn1cc(-c2nc(SCc3nnc(-c4ccccc4)o3)n(CN(C)C)n2)c(=O)c2cc(F)c(N3CCN(C)CC3)cc21	1.5 to 24.5
CCn1cc(-c2nnc(SCc3nnc(-c4ccc(F)cc4)o3)[nH]2)c(=O)c2cc(F)c(N3CCN(C)CC3)cc21	3.8 to 35.2
CCn1cc(-c2nnc(SCc3nnc(-c4ccccc4OC)o3)[nH]2)c(=O)c2cc(F)c(N3CCN(C)CC3)cc21	3.8 to 35.2
CCn1cc(-c2nc(SCc3nnc(-c4ccccc4OC)o3)n(CN(C)C)n2)c(=O)c2cc(F)c(N3CCN(C)CC3)cc21	1.5 to 24.5
CCn1cc(-c2nc(SCc3nnc(-c4cccc(C)c4)o3)n(CN(C)C)n2)c(=O)c2cc(F)c(N3CCN(C)CC3)cc21	1.5 to 24.5
CCn1cc(-c2nnc(SCc3nnc(-c4ccccc4)o3)[nH]2)c(=O)c2cc(F)c(N3CCN(C)CC3)cc21	3.8 to 35.2

What follows are molecules tested on L1210 (assay: Antiproliferative activity against mouse L1210 cells after 24 to 72 hrs by MTT assay).
Type: functional, cell-based

Compound	IC50 [µM]
CCn1cc(-c2nnc(SCC(=O)N/N=C/c3cccc([N+](=O)[O-])c3)o2)c(=O)c2cc(F)c(N3CCN(C)CC3)cc21	1.4 to 52.3
CCn1cc(-c2nnc(SCC(=O)N/N=C/c3ccccc3)o2)c(=O)c2cc(F)c(N3CCN(C)CC3)cc21	1.4 to 52.3
CCn1cc(-c2nnc(SCC(=O)N/N=C/c3ccc(O)c(OC)c3)o2)c(=O)c2cc(F)c(N3CCN(C)CC3)cc21	1.4 to 52.3
CCn1cc(-c2nnc(SCC(=O)N/N=C/c3ccc([N+](=O)[O-])cc3)o2)c(=O)c2cc(F)c(N3CCN(C)CC3)cc21	1.4 to 52.3
CCn1cc(-c2nnc(SCC(=O)N/N=C/c3ccc(C)cc3)o2)c(=O)c2cc(F)c(N3CCN(C)CC3)cc21	1.4 to 52.3

The molecules below were run on HL-60 (assay: Antiproliferative activity against human HL60 cells after 24 to 72 hrs by MTT assay).
Type: functional, cell-based

Compound	IC50 [µM]
CCn1cc(-c2nnc(SCC(=O)N/N=C/c3cccc([N+](=O)[O-])c3)o2)c(=O)c2cc(F)c(N3CCN(C)CC3)cc21	1.4 to 52.3
CCn1cc(-c2nnc(SCC(=O)N/N=C/c3ccccc3)o2)c(=O)c2cc(F)c(N3CCN(C)CC3)cc21	1.4 to 52.3
CCn1cc(-c2nnc(SCC(=O)N/N=C/c3ccc(O)c(OC)c3)o2)c(=O)c2cc(F)c(N3CCN(C)CC3)cc21	1.4 to 52.3
CCn1cc(-c2nnc(SCC(=O)N/N=C/c3ccc([N+](=O)[O-])cc3)o2)c(=O)c2cc(F)c(N3CCN(C)CC3)cc21	1.4 to 52.3
CCn1cc(-c2nnc(SCC(=O)N/N=C/c3ccc(C)cc3)o2)c(=O)c2cc(F)c(N3CCN(C)CC3)cc21	1.4 to 52.3

What follows are molecules tested on SMMC-7721 (assay: Cytotoxicity against human SMMC7721 cells assessed as reduction in cell viability by MTT assay).
Type: functional, cell-based

Compound	IC50 [µM]
CCn1cc(-c2nc(SCc3nnc(-c4ccccc4)o3)n(CN(C)C)n2)c(=O)c2cc(F)c(N3CCN(C)CC3)cc21	1.5 to 24.5
CCn1cc(-c2nnc(SCc3nnc(-c4ccc(F)cc4)o3)[nH]2)c(=O)c2cc(F)c(N3CCN(C)CC3)cc21	3.8 to 35.2
CCn1cc(-c2nnc(SCc3nnc(-c4ccccc4OC)o3)[nH]2)c(=O)c2cc(F)c(N3CCN(C)CC3)cc21	3.8 to 35.2
CCn1cc(-c2nc(SCc3nnc(-c4ccccc4OC)o3)n(CN(C)C)n2)c(=O)c2cc(F)c(N3CCN(C)CC3)cc21	1.5 to 24.5
CCn1cc(-c2nc(SCc3nnc(-c4cccc(C)c4)o3)n(CN(C)C)n2)c(=O)c2cc(F)c(N3CCN(C)CC3)cc21	1.5 to 24.5
CCn1cc(-c2nnc(SCc3nnc(-c4ccccc4)o3)[nH]2)c(=O)c2cc(F)c(N3CCN(C)CC3)cc21	3.8 to 35.2

These molecules were tested on L1210 (assay: Cytotoxicity against mouse L1210 cells assessed as reduction in cell viability by MTT assay).
Type: functional, cell-based

Compound	IC50 [µM]
CCn1cc(-c2nc(SCc3nnc(-c4ccccc4)o3)n(CN(C)C)n2)c(=O)c2cc(F)c(N3CCN(C)CC3)cc21	1.5 to 24.5
CCn1cc(-c2nnc(SCc3nnc(-c4ccc(F)cc4)o3)[nH]2)c(=O)c2cc(F)c(N3CCN(C)CC3)cc21	3.8 to 35.2
CCn1cc(-c2nnc(SCc3nnc(-c4ccccc4OC)o3)[nH]2)c(=O)c2cc(F)c(N3CCN(C)CC3)cc21	3.8 to 35.2
CCn1cc(-c2nc(SCc3nnc(-c4ccccc4OC)o3)n(CN(C)C)n2)c(=O)c2cc(F)c(N3CCN(C)CC3)cc21	1.5 to 24.5
CCn1cc(-c2nc(SCc3nnc(-c4cccc(C)c4)o3)n(CN(C)C)n2)c(=O)c2cc(F)c(N3CCN(C)CC3)cc21	1.5 to 24.5
CCn1cc(-c2nnc(SCc3nnc(-c4ccccc4)o3)[nH]2)c(=O)c2cc(F)c(N3CCN(C)CC3)cc21	3.8 to 35.2
